Source: publication PMC12498190, “A Photocaged N‐Phosphonopiperidinone as a Selective Photo‐Cleavable DPP8/9 Inhibitor” (Chembiochem, 2025)

Assays:
[1] = system: HEK293 cells; test: Cell viability assay (MTT); assay type: cell-based, human; details: 24 h; for Viability of cells (in words): after 5 min green light irradiation
Description: Figure 2 Competitive ABPP with photo‐cleavable inhibitor 5 in HEK293 cells. A) Schematic overview of a competitive ABPP experiment. A proteome is pre‐incubated with a competitor, followed by a labeling reaction with an activity‐based probe (ABP). In the case of a photocaged inhibitor, the active compound can be released via irradiation. Target proteins of the competitor cannot be bound by the ABP, resulting in an absence of the respective protein band in‐gel analysis. Created in BioRender. Najdzion, M. (2025) https://BioRender.com/84zn8cb B) Gel‐based competitive ABPP experiment in HEK293 cell lysates with the broadband serine hydrolase ABP ≡FP or the DPP8/9‐directed ABP 2 and the photocaged inhibitor 5, at the indicated concentrations, after or without prior irradiation with green light for 5 min. The corresponding pre‐incubation time for 5 was 30 min. C) Corresponding in situ competitive ABPP experiment in HEK293 cell culture, again with 10 µM 2 for 1 h. Labeling was competed by pre‐incubation with 20 µM 5 for 1 h, followed by an activation of the photocaged inhibitor by irradiation for 5 min with a green LED lamp, if applicable. D) Green light treatment has no cytotoxic effect. HEK293 cells were irradiated with a green LED lamp in the presence of 0.5% DMSO for 5 min (‘light’), and cell viability was measured after 24 h. […] Data was normalized to the non‐irradiated control (‘dark’). E) Green light treatment leads to the release of the active DPP8/9 inhibitor. HEK293 cells were incubated with compound 1 or 5 for 24 h. For both compounds, cell viability was measured under ‘dark’ (not irradiated) and ‘light’ (irradiated for 5 min with a green LED lamp after the addition of the inhibitor) conditions. […] Data was normalized to the non‐irradiated DMSO control.
In order to validate target engagement in living cells and potential cytotoxic effects of green light treatment, we determined cell viability of HEK293 cells after 24 h inhibitor treatment with 5 with or without 5 min green light irradiation, as the application of DPP8/9 inhibitors at high concentrations and thus elimination of any residual DPP8/9 activity results in cytotoxicity.^[ [38], [39] ^– [40] ^] As a control, effects of green light treatment on cell viability were examined in the absence of any inhibitor after 24 h, again with or without 5 min irradiation (Figure 2D). […] Of note, no additional effect of the photocage on cell viability was observed. In summary, our cell viability studies confirm target engagement in live cells exclusively after photorelease, thereby again confirming the suitability of the photocaged DPP8/9 inhibitor 5 as a cell biological tool compound.
To investigate the cytotoxicity of compounds, 2 × 10^4 HEK293 cells were cultured in DMEM (+/+) on 96‐well flat‐bottom cell culture plates (Sarstedt, Germany) as described above. After 24 h, cells were treated with indicated concentrations of compounds (final DMSO concentration: 0.5%) and, if applicable, irradiated with a green LED lamp (λ = 520−530 nm; Eurolite, Germany) for 5 min. Control cells were treated with DMSO. Cell viability was measured 24 h after compound treatment. To this end, 25 µL Thiazolyl Blue Tetrazolium Bromide (MTT) solution (5 mg mL^−1 MTT (Sigma Aldrich, USA) in PBS (Gibco, USA)) was added to each well directly into the medium. After 3 h of incubation at 37 °C, the medium was removed and formazan crystals were dissolved by adding 150 µL DMSO (1 h, 37 °C, gentle shaking), followed by an absorbance measurement at 570 and 630 nm as a reference using a Tecan Spark 10 M multimode microplate reader (Tecan Group Ltd., Switzerland). Each experiment was performed with five replicates. Relative cell viability was expressed as a percentage relative to the DMSO‐treated control cells.

[2] = molecular target: T1, human DPP4 (Homo sapiens, UniProt P27487); test: DPP4 enzyme inhibition assay, AMC release from GP-AMC; assay type: biochemical
T1 construct: purchased Proteros Biostructures GmbH, Germany
T1 sequence (P27487 whole entry): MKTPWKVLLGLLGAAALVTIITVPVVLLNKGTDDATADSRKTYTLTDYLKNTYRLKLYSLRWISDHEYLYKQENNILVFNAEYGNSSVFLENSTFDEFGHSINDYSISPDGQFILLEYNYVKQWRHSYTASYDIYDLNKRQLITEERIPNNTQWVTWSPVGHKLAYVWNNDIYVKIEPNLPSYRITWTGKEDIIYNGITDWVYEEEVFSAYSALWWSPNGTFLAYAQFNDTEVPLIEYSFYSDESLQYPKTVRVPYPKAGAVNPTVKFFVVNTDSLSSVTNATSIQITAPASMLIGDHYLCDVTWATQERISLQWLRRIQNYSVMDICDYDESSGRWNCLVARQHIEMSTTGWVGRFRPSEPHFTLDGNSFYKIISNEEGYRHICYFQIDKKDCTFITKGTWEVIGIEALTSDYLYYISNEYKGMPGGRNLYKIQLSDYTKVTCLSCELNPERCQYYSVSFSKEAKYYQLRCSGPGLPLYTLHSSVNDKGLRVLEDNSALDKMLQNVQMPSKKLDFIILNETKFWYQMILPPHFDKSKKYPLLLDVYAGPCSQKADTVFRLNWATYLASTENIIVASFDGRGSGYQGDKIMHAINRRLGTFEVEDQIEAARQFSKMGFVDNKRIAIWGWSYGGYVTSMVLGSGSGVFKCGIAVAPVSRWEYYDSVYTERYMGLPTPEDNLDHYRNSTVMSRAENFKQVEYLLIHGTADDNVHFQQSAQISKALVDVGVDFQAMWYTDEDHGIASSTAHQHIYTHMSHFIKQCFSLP
Text: We then continued to investigate the biochemical properties of the photocaged compound 5 versus the photoreleased product resembling inhibitor 1. To this end, we performed biochemical enzyme inhibition assays with DPP8 and DPP9 before and after irradiation of 5. Resulting DPP8/9 inhibition was quantified by following the DPP8‐ or DPP9‐mediated proteolysis of the fluorophore 7‐amino‐4‐methylcoumarin (AMC) from the model substrate Gly‐Pro‐AMC (Figure 1C,D and Table 1 ). To induce photocleavage of 5, reaction mixtures were irradiated for 5 min with the same green LED lamp as before, followed by a pre‐incubation of 45 min with the photoreleased inhibitor prior to substrate addition.
Enzyme activity of human DPP4, DPP8, and DPP9 (Proteros Biostructures GmbH, Germany) was determined by measuring the initial velocity of AMC release from the fluorogenic substrate GP‐AMC (Sigma Aldrich, USA) using a Tecan Spark 10 M multimode microplate reader (Tecan Group Ltd., Switzerland) in activity buffer (20 mM HEPES/KOH pH 7.3, 110 mM potassium acetate, 2 mM magnesium acetate, 0.5 mM EGTA, 0.02% Tween 20, supplemented with 1 mM DTT) and a final volume of 20 μL for maximal 30 min at 30 °C. Prior to the activity measurement, 10 nM of the corresponding enzyme was incubated for 45 min at 30 °C and gentle shaking with the indicated compounds at concentrations ranging from 0 to 100 μM, followed by irradiation with a green LED lamp (λ = 520−530 nm; Eurolite, Germany) for 5 min. The corresponding compounds were dissolved in DMSO and diluted in activity buffer (final DMSO concentration: 1%). To the inhibitor–enzyme mixture, GP‐AMC was then added to a final concentration of 250 μM, and the activity measurement was started. The resulting enzyme activity was calculated from the slope (fluorescence release over time) and plotted against the concentrations of the inhibitor. Apparent IC50 values were calculated using Graph‐Pad Prism v10.4.1 using the equation: [Inhibitor] versus response‐Variable slope (four parameters). […]

SMILES: CCCCCc1ccc(SCCP(=O)(OCC)N2CCC[C@H](NC(=O)OCC3=C4C(C)=CC(C)=[N+]4[B-](C)(C)n4c(C)cc(C)c43)C2=O)cc1 (stereo partly drawn) [Compound 5]
- Viability of cells (in words) ([1]; 25 µM): significantly reduced
- Viability of cells (in words) ([1]; 50 µM): significantly reduced
- Cytotoxicity (in words) ([1]; dark, up to highest concentrations used): no cytotoxicity
- IC50 ([2]; DPP4, dark (without green light irradiation), 45 min pre-incubation, read-out: Apparent IC50): > 100 µM
- DPP4 inhibition (in words) ([2]; irradiated): not inhibited
- DPP4 inhibition (in words) ([2]; non-irradiated): not inhibited
